Reference: PubChem BioAssay (NCI)
Where “and” joins values, the source holds several entries; their conditions need not be identical. Identical values can stand only once.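 All cell lines were grown in 96-well plates and treated with compound for 48 hours. The concentration for 50% growth inhibition is given as GI50. Definition used: TGI = concentration required for complete inhibition of growth.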

What was measured:
Assay in all cases: NCI tumour cell line growth inhibition, 48 h
[1] = tested on: MDA-N
[2] = tested on: HOP-18 NSCLC
[3] = tested on: DMS 114 small cell lung
[4] = tested on: SNB-78 CNS
[5] = tested on: RXF-631 renal
[6] = tested on: DMS 273 small cell lung
[7] = tested on: DLD-1 colon
[8] = tested on: LXFL 529 NSCLC
[9] = tested on: XF 498 CNS
[10] = tested on: P388 leukemia
[11] = tested on: P388/ADR leukemia
[12] = tested on: SN12K1 renal

| SMILES | TGI [1] | TGI [2] | TGI [3] | TGI [4] | TGI [5] [µM] | TGI [6] | TGI [7] | TGI [8] | TGI [9] [µM] | GI50 [2] [µM] | GI50 [3] [µM] | GI50 [1] [µM] | TGI [10] [µM] | GI50 [4] [µM] | TGI [11] [µM] | GI50 [6] [µM] | GI50 [7] [µM] | TGI [12] [µM] |
| --- | --- | --- | --- | --- | --- | --- | --- | --- | --- | --- | --- | --- | --- | --- | --- | --- | --- | --- |
| O=S(=O)(O)C(c1ccccc1)C(O)c1ccccc1 (stereo unspecified) | > 100 µM | – | – | – | – | – | – | – | – | – | – | – | – | – | – | – | – | – |
| NS(=O)(=O)c1cc2c(cc1Cl)NCNS2(=O)=O | > 100 µM | – | – | – | – | – | – | – | – | – | – | – | – | – | – | – | – | – |
| N#CC1(CCCCl)CCCCC1 | – | > 100 µM | > 100 µM | > 100 µM | > 100 | > 100 µM | > 100 µM | > 100 µM | > 100 | – | – | – | – | – | – | – | – | – |
| COc1nc(N)nc2nc[nH]c12 | > 1000 µM | 499 µM and 800 µM | 500 µM and > 800 µM | 500 µM and 800 µM | 800 | 500 µM and > 800 µM | 500 µM and 800 µM | > 800 µM | 498 | 641 | > 800 | 760 | 500 | 684 | 500 | > 800 | 655 | 500 |
| CC(C)CCCC(C)C1CCC2C3CC([N+](=O)[O-])=C4CC(O)CCC4(C)C3CCC12C (stereo unspecified) | – | – | 45.7 µM | – | – | 27.2 µM | 35.9 µM | 32.9 µM | 37.1 | – | – | – | – | – | – | – | – | – |
| C=C(C)c1nc(Oc2ccccc2)nc(Oc2ccccc2)n1 | 14.8 µM | 30.2 µM | 8.79 µM | 26.8 µM | 13.5 | 19.7 µM | 6.62 µM | 3.88 µM | 13 | – | – | – | 3.63 | – | 2.7 | – | – | 8.88 |
| CCC12C=C(C(=O)OC)N3c4ccccc4C4CCN(CCC1)C2C43 (stereo unspecified) | – | > 100 µM | > 100 µM | > 100 µM | – | > 100 µM | > 100 µM | > 100 µM | – | – | – | – | – | – | – | – | – | – |
| N=C(N)SCc1ccc(Cl)c2ccccc12 (tested in a mixture with another compound) | 23.4 µM and 24.8 µM | – | – | – | – | – | – | – | – | – | – | – | – | – | – | – | – | – |
| O=C1NC(=O)C2C3C=CC(C12)C1C2C(=O)NC(=O)C2C31 (stereo unspecified) | 250 µM and > 1000 µM | 98.8 µM and 250 µM | 233 µM | 250 µM | – | 250 µM | 250 µM | – | 244 | > 63.3 | > 60.5 | 193 | 228 | – | 250 | – | 39 | 250 |
| Cc1ccccc1NC(=O)CC(=O)NNCC(=O)Nc1nnc(-c2ccccc2)s1 | – | 96.2 µM | > 100 µM | > 100 µM | > 100 | > 100 µM | > 100 µM | > 100 µM | > 100 | – | – | – | – | – | – | – | – | – |
| O=C1NC(c2ccccc2Cl)Nc2ccccc21 (stereo unspecified) | 3.29 µM | – | – | – | – | – | – | – | – | – | – | – | – | – | – | – | – | – |
| CC(C)(C)c1ccc(OCCOCCOc2ccc(C(C)(C)C)cc2S(N)(=O)=O)c(S(N)(=O)=O)c1 | – | > 100 µM | > 100 µM | > 100 µM | > 100 | > 100 µM | > 100 µM | – | – | – | – | – | – | – | – | – | – | – |
| CC(=O)NC(CCCNC(=O)OCc1ccccc1)C(=O)NCc1ccccc1 (stereo unspecified) | – | – | > 100 µM | – | – | > 100 µM | > 100 µM | > 100 µM | > 100 | – | – | – | – | – | – | – | – | – |
| CC1(C)CC(=O)C(C(=O)Nc2cccs2)=C(O)C1 | – | > 100 µM | – | > 100 µM | > 100 | 82 µM | > 100 µM | > 100 µM | 82.7 | – | – | – | – | – | – | – | – | – |
| O=C(CC1(O)C(=O)Nc2c(Cl)ccc(Cl)c21)c1ccc(Cl)cc1 (stereo unspecified) | – | > 100 µM | 49.2 µM | > 100 µM | 64.3 | 73.5 µM | > 100 µM | 88.9 µM | 39.9 | – | – | – | – | – | – | – | – | – |
| COc1ccc(C(C)Nc2cc(OC)c(OC)c(OC)c2)cc1 (stereo unspecified) | – | > 100 µM | – | 17.6 µM | – | > 100 µM | > 100 µM | > 100 µM | > 26.4 | – | – | – | – | – | – | – | – | – |
| O=C(CC1(O)C(=O)Nc2c(Cl)cc(Cl)cc21)c1cccc([N+](=O)[O-])c1 (stereo unspecified) | 34.6 µM | 98.6 µM | 43.3 µM | > 100 µM | 92.1 | > 100 µM | > 100 µM | 30 µM | 37.3 | – | – | – | – | – | – | – | – | – |

| SMILES | TGI [1] | TGI [2] | TGI [3] | TGI [4] | TGI [5] [µM] | TGI [6] | TGI [7] | TGI [8] | TGI [9] [µM] | GI50 [2] [µM] | GI50 [3] [µM] | GI50 [1] [µM] | TGI [10] [µM] | GI50 [4] [µM] | TGI [11] [µM] | GI50 [6] [µM] | GI50 [7] [µM] | TGI [12] [µM] |
| --- | --- | --- | --- | --- | --- | --- | --- | --- | --- | --- | --- | --- | --- | --- | --- | --- | --- | --- |
| CN(C)c1ccc(/C=C2\CCc3ccccc3C2=O)cc1Br | – | > 100 µM | – | > 100 µM | – | > 100 µM | > 100 µM | > 100 µM | > 100 | – | – | – | – | – | – | – | – | – |
| COC1=CC(=O)C(O)=C(CC2(C)C(C)CCC3(C)C2CCCC3(C)C)C1=O (stereo unspecified) | – | 13 µM | 8.99 µM | > 100 µM | > 100 | 18.3 µM | 45.1 µM | 22.7 µM | 22.4 | – | – | – | – | – | – | – | – | – |
| O=[N+]([O-])c1ccc(/C=C/c2ccc(/C=C/c3ccc([N+](=O)[O-])cc3[N+](=O)[O-])cc2)c([N+](=O)[O-])c1 | – | – | > 100 µM | > 100 µM | – | > 100 µM | > 100 µM | > 100 µM | > 100 | – | – | – | – | – | – | – | – | – |
| C/C(=C\c1ccccc1)C(O)C(=O)c1nc2ccc(Cl)cc2[nH]c1=O (stereo unspecified) | – | – | > 100 µM | > 100 µM | – | > 100 µM | > 100 µM | > 100 µM | > 100 | – | – | – | – | – | – | – | – | – |
| CN(C)CCNC(=O)c1cccc2c1nc(-c1cccnc1)c1ccccc12 | – | 64 µM | 18.8 µM | 26.3 µM | 16.7 | 14.2 µM | 21.2 µM | – | – | – | – | – | – | – | – | – | – | – |
| CC(C)(C)C1CCC(O)(c2ccccc2)CC1 (stereo unspecified) | – | > 100 µM | > 100 µM and 52.5 µM | > 100 µM and 57 µM | – | > 100 µM and 33.6 µM | > 100 µM and 75.5 µM | > 100 µM and 49.2 µM | 22.9 | – | – | – | – | – | – | – | – | – |
| ON1CCc2c([nH]c3ccccc23)C1c1ccc(Cl)cc1 (stereo unspecified) | – | – | > 100 µM | > 100 µM | – | 97.4 µM | > 100 µM | > 100 µM | 57.6 | – | – | – | – | – | – | – | – | – |
| CC(C)(C)C1CC[C@H]2c3c([nH]c4ccccc34)[C@H]3C(=O)N(c4ccc(F)cc4)C(=O)[C@H]3[C@H]2C1 (stereo partly specified) | – | 34.4 µM | 38 µM | 36.8 µM | – | 33.3 µM | 37.4 µM | 30.7 µM | 32.3 | – | – | – | – | – | – | – | – | – |
| CC1(C)CC2=NO[Se]3=C2C(=NO3)C1 | 4.22 µM | – | – | – | – | – | – | – | – | – | – | – | – | – | – | – | – | – |
| COc1ccc2cc3n(c(=O)c2c1)CCc1c-3cc(OC)c(OC)c1OC | – | > 100 µM | > 100 µM | > 100 µM | – | > 100 µM | > 100 µM | > 100 µM | > 100 | – | – | – | – | – | – | – | – | – |
| COC(=O)C1CC(=O)O[C@H]1c1ccc(OC)c(OC)c1 (stereo partly specified) | – | > 100 µM | > 100 µM | > 100 µM | > 100 | > 100 µM | > 100 µM | > 100 µM | > 100 | – | – | – | – | – | – | – | – | – |
| CCCCC(C(=O)C(=O)Nc1ccccc1CC)C(=O)C(C)C (stereo unspecified) | – | – | > 100 µM | > 100 µM | > 100 | > 100 µM | > 100 µM | > 100 µM | > 100 | – | – | – | – | – | – | – | – | – |
| N#Cc1c(CC(=O)O)cc(=O)n2c1[nH]c1ccccc12 | – | – | > 100 µM | > 100 µM | – | > 100 µM | > 100 µM | – | – | – | – | – | – | – | – | – | – | – |
| O=C1c2ccccc2C2(O)N(c3ccccc3)C(=S)N(c3ccccc3)C12O (stereo unspecified) | – | > 100 µM | > 100 µM | > 100 µM | > 100 | > 100 µM | > 100 µM | > 100 µM | – | – | – | – | – | – | – | – | – | – |
| CN(C)c1ccc(/C=c2/sc3nc(=O)c(-c4ccccc4NC(=O)C(F)(F)F)nn3c2=O)cc1 | – | – | 57.2 µM | > 100 µM | – | > 100 µM | > 100 µM | > 100 µM | > 100 | – | – | – | – | – | – | – | – | – |
| O=C1c2ccccc2N1C(=O)c1ccccc1[N+](=O)[O-] | > 100 µM | – | – | – | – | – | – | – | – | – | – | – | – | – | – | – | – | – |
| O=c1c2cc(Br)ccc2nc(CNc2ccccc2)n1-c1ccccc1 | – | > 53.3 µM | 25.6 µM | 57.9 µM | – | > 100 µM | 21.6 µM | 36.9 µM | 29.1 | – | – | – | – | – | – | – | – | – |
